Data published in patent US20050026845A1, “Pharmaceutical/cosmetic compositions comprising the lysine-D-proline-valine tripeptide” (priority 1995, published 2005).
Non-standard residues stand in square brackets, D forms with d. Residues, ends and D or L forms follow the SMILES beside them.

Experiments:
catagenic papilla cells = test: Inhibition of IL-1α-induced production of PGE2 by catagenic papilla cells cultured in vitro; type: cell-based; conditions: 10 μM tripeptide; for PGE2: IL-1α 10 ng/ml, control 9.2, IL-1α alone 100.2; for % inhibition: PGE2 induced by IL-1α 10 ng/ml
Protocol: Measurement of the inhibition of the production of PGE2 by catagenic papilla cells cultured in vitro.
The cells (1,000 per well), at the 24th passage, were incubated in 199 medium marketed by Gibco in the presence of 1% foetal calf serum and of antibiotics. 20 hours later, the medium was replaced by an identical medium, but containing the tripeptides to be evaluated at a final concentration of 10 μM. 5 hours later, interleukin-1α was added at a final concentration of 10 ng/ml. 20 hours later, the PGE2 levels produced by the cultured papilla cells were evaluated by means of a Biotrack kit marketed by Amersham, the manufacturer's instructions being followed. This method thus made it possible to evaluate the inhibiting effect of these tripeptides on the production of PGE2 induced by a proinflammatory cytokine: interleukin-1α.

IL-1α [1] = test: Expression of the mRNAs of IL-1α from the IL-1α/GAPDH ratio, plucked hairs of two donors, 20 hours; type: cell-based, human
Protocol: Inhibiting effect of Ac-LPV-NH2* on the expression of the mRNAs of IL-1α, calculated from the IL-1α/GAPDH ratio.
5 hairs were plucked from two different donors and were then incubated for 20 hours at 37° C. (5% CO2) in Williams' medium E supplemented with antibiotics and with glutamine and in the presence of Ac-LPV-NH2* at the concentrations indicated. A control was carried out in which there was no peptide added.

interleukin-1α = test: Production of interleukin-1α in the supernatant of plucked hairs (ELISA); type: cell-based, human; conditions: 20 hours; for % of inhibition: IL-1α in supernatant; for IL-1α: plucked hairs from inflammatory alopecia, control 21.8 pg/ml
Protocol: Dose-response activity of the Ac-LPV-NH2* tripeptide with respect to the production of interleukin-1α in the supernatant of plucked hairs emanating from a patient afflicted with inflammatory alopecia.
Plucked hairs were removed from the region of the vertex of a volunteer suffering from inflammatory alopecia. They were placed in a Williams' survival medium E (marketed by Gibco BRL) containing penicillin G (100 units/ml), streptomycin S (100 μg/ml) and amphotericin (250 ng/ml), in the presence or in the absence (control) of the Ac-LPV-NH2* tripeptide, synthesized to order by Neosystem S.A. (Strasbourg), at the doses indicated. After incubating for 20 hours, the culture supernatants were collected in a tube and then centrifuged for 5 minutes at 14,000 revolutions/minute (Eppendorff centrifuge, model 5415C). The supernatants were then collected in a clean tube and placed at 4° C.
The interleukin-1α concentration was then evaluated with respect to 100 μl of supernatant by means of a Biotrak ELISA kit marketed by Amersham, according to the manufacturer's instructions.

[2] = system: type-1 IL-1 receptor (IL-1R1); test: Expression of type-1 IL-1 receptor mRNA in plucked hairs (RT-PCR, relative to GAPDH), 3 h 30 min; type: cell-based, human; conditions: treated batch vs control batch (100%), dose not given
Protocol: (§1) Inhibition of the expression of the messenger RNAs of proinflammatory and inflammatory cytokines in response to the Ac-LPV-NH2* tripeptide.
(§2) Ten plucked hairs were removed from the region of the vertex of a volunteer suffering from inflammatory alopecia. These were placed in a Williams' survival medium E (marketed by Gibco BRL) containing penicillin G (100 units/ml), streptomycin S (100 μg/ml) and amphotericin (250 ng/ml), in the presence (treated batch) or in the absence (control) of the Ac-LPV-NH2* tripeptide, synthesized to order by Neosystem S.A., (Strasbourg).
(§3) After incubating for 3 h, 30 min, the messenger RNAs corresponding to these two batches of hair were purified from a “quick prep mRNA purification kit” marketed by Pharmacia. DNAs complementary to these mRNAs were then prepared by means of a reverse transcription kit marketed by Pharmacia, the manufacturer's instructions being followed, and then subjected to a polymerization chain reaction (PCR) stage by using primers specific for the mRNAs of glyceraldehyde-3-phosphate dehydrogenase (GAPDH), of IL-1α, of the type-1 IL-1 receptor and of the type-2 IL-1 receptor. The amounts of amplified DNA were then evaluated by electrophoresis on 1.5% agarose gel in the presence of ethidium bromide. […]

IL-1α [3] = test: Expression of IL-1α mRNA in plucked hairs (RT-PCR, relative to GAPDH), 3 h 30 min; type: cell-based, human; conditions: treated batch vs control batch (100%), dose not given
Protocol: as §1, §2, §3

| SMILES | PGE2 (catagenic papilla cells) | % inhibition (catagenic papilla cells) | expression of the mRNAs of IL-1α, % of the control (IL-1α [1]; donor A, 1 μM) | expression of the mRNAs of IL-1α, % of the control (IL-1α [1]; donor A, 10 μM) | expression of the mRNAs of IL-1α, % of the control (IL-1α [1]; donor B, 0.1 μM) | expression of the mRNAs of IL-1α, % of the control (IL-1α [1]; donor B, 1 μM) | expression of the mRNAs of IL-1α, % of the control (IL-1α [1]; donor B, 10 μM) | % of inhibition (interleukin-1α; dose 1 μM) | IL-1α (interleukin-1α; dose 1 μM) | % of inhibition (interleukin-1α; dose 10 μM) | IL-1α (interleukin-1α; dose 10 μM) | % of expression IL-1R1 [2] | % of expression IL-1α (IL-1α [3]) |
| --- | --- | --- | --- | --- | --- | --- | --- | --- | --- | --- | --- | --- | --- |
| CC(=O)N[C@@H](CCCCN)C(=O)N1CCC[C@H]1C(=O)N[C@H](C(N)=O)C(C)C [Acetyl-(L) Lys-(L) Pro-(L) Val-NH2, reference compound] (Ac-Lys-Pro-Val-NH2) | 10.0 pg/mL | 90% | – | – | – | – | – | – | – | – | – | – | – |
| CC(=O)N[C@H](CCCCN)C(=O)N1CCC[C@@H]1C(=O)N[C@@H](C(N)=O)C(C)C [Acetyl-(D) Lys-(D) Pro-(D) Val-NH2] (Ac-[dK]-[dP]-[dV]-NH2) | 28.0 pg/mL | 78% | 51% | 28% | 53% | 62% | 28.7% | 49% | 11.1 pg/mL | 72% | 6.1 pg/mL | 26% | 0% |
| CC(=O)N[C@@H](CCCCN)C(=O)N1CCC[C@@H]1C(=O)N[C@H](C(N)=O)C(C)C [Ac-L-(D)P-V-NH2***, Acetyl-(L) Lys-(D) Pro-(L) Val-NH2] (Ac-Lys-[dP]-Val-NH2) | 24.6 pg/mL | 75% | – | – | – | – | – | – | – | – | – | – | – |
